Data: patent US4415558A, “CRF And analogs” (The Salk Institute for Biological Studies, priority 1982, dated 1983)
Where a SMILES comes first, the peptide text is derived from it. [ ]: non-standard residue; d: D form. The star is where a group is joined. Nle = CCCC[C@H](N)C(=O)O; Bz = O=C(c1ccccc1)*

Experiments:
[1] = system: cultured rat pituitary cells; assay: Secretion of ACTH and β-endorphin by cultured rat pituitary cells; format: cell-based; settings: general procedure set forth in Example III; in vitro or in vivo not specified
Method: The synthetic and the natural CRF were examined for their effects on the secretion of ACTH and β-endorphin in vitro and the synthetic CRF was also examined in vivo. The high potency of synthetic and natural CRF to stimulate the secretion of ACTH and β-endorphin by cultured rat pituitary cells was measured. […] The secretory response to maximal (>5 nM) concentrations of CRF is at a plateau level. In vivo doses from 30 ng to 3 μg/Kg of body weight rapidly elevated ACTH and β-endorphin-like (β-END-LI) secretions 5-20 fold.

[2] = Blood pressure in rats (mean carotid blood pressure, urethane-anesthetized rat); format: in vivo; settings: general procedure set forth in Example III
Method: Plasma levels of ACTH and β-END-LI are elevated for at least 5-20 minutes following the intravenous administration of CRF to nembutal-anesthesized male rats and to quiescent male or female rats with indwelling intravenous cannulae. […] Mean cartoid blood pressure in a urethane-anesthesized rat fell from 87 to 72±2 mm Hg and remained at that level for 30 minutes following an injection equal to 3 μg CRF/Kg body weight; the subsequent administration of an injection equal to 30 μg CRF/Kg body weight lowered mean blood pressure to 42±3 mm Hg for more than 2 hours.

Row | Molecule | Stimulation of secretion of ACTH and β-END-LI (in words) [1] | Lowering of blood pressure (in words) [2]
1 | H-SQEPPISLDLTFYLLREVLE[Nle]TKADQLAQQAHSNRKLLDIA-NH2 [[Tyr^13, Nle^21]-CRF] | stimulates the secretion of ACTH and β-END-LI | very significant lowering of blood pressure to a greater extent than CRF
2 | H-SQEPPISLDLTFHLLREVLEATKADQLAQQAHTNRKLLDI[Nle]-NH2 [[Ala^21, Thr^33, Nle^41]-CRF] | stimulates the secretion of ACTH and β-END-LI | very significant lowering of blood pressure
3 | CC[C@H](C)[C@H](NC(=O)[C@H](CC(=O)O)NC(=O)[C@H](CC(C)C)NC(=O)[C@H](CC(C)C)NC(=O)[C@H](CCCCN)NC(=O)[C@H](CCCNC(=N)N)NC(=O)[C@H](CC(N)=O)NC(=O)[C@H](CO)NC(=O)[C@H](Cc1c[nH]cn1)NC(=O)[C@H](C)NC(=O)[C@H](CCC(N)=O)NC(=O)[C@H](CCC(N)=O)NC(=O)[C@H](C)NC(=O)[C@H](CC(C)C)NC(=O)[C@H](CCC(N)=O)NC(=O)[C@H](CC(=O)O)NC(=O)[C@H](C)NC(=O)[C@H](CCCCN)NC(=O)[C@@H](NC(=O)[C@H](CCSC)NC(=O)[C@H](CCC(=O)O)NC(=O)[C@H](CC(C)C)NC(=O)[C@@H](NC(=O)[C@H](CCC(=O)O)NC(=O)[C@H](CCCNC(=N)N)NC(=O)[C@H](CC(C)C)NC(=O)[C@H](CC(C)C)NC(=O)[C@H](Cc1c[nH]cn1)NC(=O)[C@H](CC(C)C)NC(=O)[C@@H](NC(=O)[C@H](CC(C)C)NC(=O)[C@H](CC(=O)O)NC(=O)[C@H](CC(C)C)NC(=O)[C@H](CO)NC(=O)[C@@H](NC(=O)[C@@H]1CCCN1C(=O)[C@@H]1CCCN1C(=O)[C@H](CCC(=O)O)NC(=O)[C@H](C)NC(=O)c1ccccc1)[C@@H](C)CC)[C@@H](C)O)C(C)C)[C@@H](C)O)C(=O)N[C@@H](C)C(N)=O [[Benzoyl-Ala^1, des Gln^2, Leu^12]-CRF] (Bz-AEPPISLDLTLHLLREVLEMTKADQLAQQAHSNRKLLDIA-NH2) | stimulates the secretion of ACTH and β-END-LI | very significant lowering of blood pressure
4 | CC[C@H](C)[C@H](NC(=O)[C@H](CC(=O)O)NC(=O)[C@H](CC(C)C)NC(=O)[C@H](CC(C)C)NC(=O)[C@H](CCCCN)NC(=O)[C@H](CCCNC(=N)N)NC(=O)[C@H](CC(N)=O)NC(=O)[C@H](CO)NC(=O)[C@H](Cc1c[nH]cn1)NC(=O)[C@H](C)NC(=O)[C@H](CCC(N)=O)NC(=O)[C@H](CCC(N)=O)NC(=O)[C@H](C)NC(=O)[C@H](CC(C)C)NC(=O)[C@H](CCC(N)=O)NC(=O)[C@H](CC(=O)O)NC(=O)[C@H](C)NC(=O)[C@H](CCCCN)NC(=O)[C@@H](NC(=O)[C@H](CCSC)NC(=O)[C@H](CCC(=O)O)NC(=O)[C@H](CC(C)C)NC(=O)[C@@H](NC(=O)[C@H](CCC(=O)O)NC(=O)[C@H](CCCNC(=N)N)NC(=O)[C@H](CC(C)C)NC(=O)[C@H](CC(C)C)NC(=O)[C@H](Cc1c[nH]cn1)NC(=O)[C@H](Cc1ccccc1)NC(=O)[C@@H](NC(=O)[C@H](CC(C)C)NC(=O)[C@H](CC(=O)O)NC(=O)[C@H](CC(C)C)NC(=O)[C@H](CO)NC(=O)[C@@H](NC(=O)[C@@H]1CCCN1C(=O)[C@@H]1CCCN1C(=O)[C@H](CCC(=O)O)NC(=O)[C@H](CCC(N)=O)NC(=O)[C@@H](N)CO)[C@@H](C)CC)[C@@H](C)O)C(C)C)[C@@H](C)O)C(N)=O [[des Ala^41]-CRF] (H-SQEPPISLDLTFHLLREVLEMTKADQLAQQAHSNRKLLDI-NH2) | stimulates the secretion of ACTH and β-END-LI | very significant lowering of blood pressure
5 | CC[C@H](C)[C@H](NC(=O)[C@H](CC(=O)O)NC(=O)[C@H](CC(C)C)NC(=O)[C@H](CC(C)C)NC(=O)[C@H](CCCCN)NC(=O)[C@H](CCCNC(=N)N)NC(=O)[C@H](CC(N)=O)NC(=O)[C@H](CO)NC(=O)[C@H](Cc1c[nH]cn1)NC(=O)[C@H](C)NC(=O)[C@H](CCC(N)=O)NC(=O)[C@H](CCC(N)=O)NC(=O)[C@H](C)NC(=O)[C@H](CC(C)C)NC(=O)[C@H](CCC(N)=O)NC(=O)[C@H](CC(=O)O)NC(=O)[C@H](C)NC(=O)[C@H](CCCCN)NC(=O)[C@@H](NC(=O)[C@H](CCSC)NC(=O)[C@H](CCC(=O)O)NC(=O)[C@H](CC(C)C)NC(=O)[C@@H](NC(=O)[C@H](CCC(=O)O)NC(=O)[C@H](CCCNC(=N)N)NC(=O)[C@H](CC(C)C)NC(=O)[C@H](CC(C)C)NC(=O)[C@H](Cc1c[nH]cn1)NC(=O)[C@H](Cc1ccccc1)NC(=O)[C@@H](NC(=O)[C@H](CC(C)C)NC(=O)[C@H](CC(=O)O)NC(=O)[C@H](CC(C)C)NC(=O)[C@H](CO)NC(=O)[C@@H](NC(=O)[C@@H]1CCCN1C(=O)[C@@H]1CCCN1)[C@@H](C)CC)[C@@H](C)O)C(C)C)[C@@H](C)O)C(=O)N[C@@H](C)C(N)=O [[des Ser^1 -Gln^2 -Glu^3]-CRF] | stimulates the secretion of ACTH and β-END-LI | very significant lowering of blood pressure
6 | H-SQEPPISLDLTFHLLREVIEMTKAEQLAQQAHSNRKLLDIA-NH2 [[Ile^19, Glu^25]-CRF] | stimulates the secretion of ACTH and β-END-LI | very significant lowering of blood pressure
7 | CC[C@H](C)[C@H](NC(=O)[C@H](CC(=O)O)NC(=O)[C@H](CC(C)C)NC(=O)[C@H](CC(C)C)NC(=O)[C@H](CCCCN)NC(=O)[C@H](CCCNC(=N)N)NC(=O)[C@H](CC(N)=O)NC(=O)[C@H](CO)NC(=O)[C@H](Cc1c[nH]cn1)NC(=O)[C@H](C)NC(=O)[C@H](CCC(N)=O)NC(=O)[C@H](CCC(N)=O)NC(=O)[C@H](C)NC(=O)[C@H](CC(C)C)NC(=O)[C@H](CCC(N)=O)NC(=O)[C@H](CC(=O)O)NC(=O)[C@H](C)NC(=O)[C@H](CCCCN)NC(=O)[C@@H](NC(=O)[C@H](CCSC)NC(=O)[C@H](CCC(=O)O)NC(=O)[C@H](CC(C)C)NC(=O)[C@@H](NC(=O)[C@H](CCC(=O)O)NC(=O)[C@H](CCCNC(=N)N)NC(=O)[C@H](CC(C)C)NC(=O)[C@H](CC(C)C)NC(=O)[C@H](Cc1c[nH]cn1)NC(=O)[C@H](Cc1ccccc1)NC(=O)[C@@H](NC(=O)[C@H](CC(C)C)NC(=O)[C@H](CC(=O)O)NC(=O)[C@H](CC(C)C)NC(=O)[C@H](CO)NC(=O)[C@@H](NC(=O)[C@@H]1CCCN1C(=O)[C@@H]1CCCN1C(=O)[C@H](CCC(=O)O)NC(=O)[C@H](CCC(N)=O)NC(=O)[C@H](C)NC(C)=O)[C@@H](C)CC)[C@@H](C)O)C(C)C)[C@@H](C)O)C(=O)N[C@@H](C)C(N)=O [[Acetyl-Ala^1]-CRF] | stimulates the secretion of ACTH and β-END-LI | very significant lowering of blood pressure
8 | CC[C@H](C)[C@H](NC(=O)[C@@H](NC(=O)[C@H](CC(=O)O)NC(=O)[C@H](CC(C)C)NC(=O)[C@H](CC(C)C)NC(=O)[C@H](CC(C)C)NC(=O)[C@H](CCCNC(=N)N)NC(=O)[C@H](CC(N)=O)NC(=O)[C@H](CC(N)=O)NC(=O)[C@H](C)NC(=O)[C@H](C)NC(=O)[C@H](CCC(N)=O)NC(=O)[C@H](CCC(N)=O)NC(=O)[C@H](CCCCN)NC(=O)CNC(=O)[C@H](CCCCN)NC(=O)[C@H](CCC(=O)O)NC(=O)[C@H](CCC(N)=O)NC(=O)[C@H](CCCCN)NC(=O)[C@H](CCC(=O)O)NC(=O)[C@@H](NC(=O)[C@H](CCC(=O)O)NC(=O)[C@@H](NC(=O)[C@H](CCSC)NC(=O)[C@H](CCCCN)NC(=O)[C@H](CCCNC(=N)N)NC(=O)[C@H](CC(C)C)NC(=O)[C@H](CC(C)C)NC(=O)[C@H](CCC(=O)O)NC(=O)[C@H](CC(C)C)NC(=O)[C@H](CO)NC(=O)[C@H](CC(C)C)NC(=O)[C@H](CC(=O)O)NC(=O)[C@@H](NC(=O)[C@H](CO)NC(=O)[C@@H](NC(=O)[C@@H]1CCCN1C(=O)[C@@H]1CCCN1C(=O)CNC(=O)[C@@H]1CCC(=O)N1)[C@@H](C)CC)[C@@H](C)CC)[C@@H](C)CC)[C@@H](C)CC)[C@@H](C)O)C(N)=O [[Gly^26]-sauvagine] | stimulates the secretion of ACTH and β-END-LI | very significant lowering of blood pressure
9 | CC[C@H](C)[C@H](NC(=O)[C@@H](NC(=O)[C@H](CC(=O)O)NC(=O)[C@H](CC(C)C)NC(=O)[C@H](CC(C)C)NC(=O)[C@H](CC(C)C)NC(=O)[C@H](CCCNC(=N)N)NC(=O)[C@H](CC(N)=O)NC(=O)[C@H](CC(N)=O)NC(=O)[C@H](C)NC(=O)[C@H](C)NC(=O)[C@H](CCC(N)=O)NC(=O)[C@H](CCC(N)=O)NC(=O)[C@H](CCCCN)NC(=O)[C@H](CCC(=O)O)NC(=O)[C@H](CCCCN)NC(=O)[C@H](CCC(=O)O)NC(=O)[C@H](CCC(N)=O)NC(=O)[C@H](CCCCN)NC(=O)[C@H](CCC(=O)O)NC(=O)[C@@H](NC(=O)[C@H](CCC(=O)O)NC(=O)[C@@H](NC(=O)[C@H](CCSC)NC(=O)[C@H](CCCCN)NC(=O)[C@H](CCCNC(=N)N)NC(=O)[C@H](CC(C)C)NC(=O)[C@H](CC(C)C)NC(=O)[C@H](CCC(=O)O)NC(=O)[C@H](CC(C)C)NC(=O)[C@H](CO)NC(=O)[C@H](CC(C)C)NC(=O)[C@H](CC(=O)O)NC(=O)[C@@H](NC(=O)[C@H](CO)NC(=O)[C@@H](NC(=O)[C@@H]1CCCN1C(=O)[C@@H]1CCCN1)[C@@H](C)CC)[C@@H](C)CC)[C@@H](C)CC)[C@@H](C)CC)[C@@H](C)O)C(N)=O [[des pGlu^1 -Gly^2]-sauvagine] | stimulates the secretion of ACTH and β-END-LI | very significant lowering of blood pressure
